System: HBV
Assay: Inhibition of HBV infection of human liver buds by drugs (intracellular HBV 3.5k RNA and HBV DNA in culture supernatant)
Type: cell-based
Settings: HBV 5,000 copies per cell, cultured for 10 days, FIG. 8, vs Con
Procedure: The endodermal cells obtained, vascular endothelial cells (human umbilical vein-derived endothelial cells) (Lonza, Basel, Switzerland) and undifferentiated mesenchymal cells (human bone marrow-derived mesenchymal stem cells) (Lonza, Basel, Switzerland) were mixed at 10:7:1 (400 cells: 280 cells: 40 cells per organ bud) to prepare human liver buds (120-150 μm in size).
The human liver buds prepared in (2) above were cultured in DMSO-containing medium for 7 days and further cultured in HGF-, OSM- and DEX-containing medium for 7 days, followed by infection with HBV. HBV was recovered from culture supernatant of HepG2.2.15 cells which had been prepared by transferring the intact HBV genome (genotype D) into human hepatoma cell line HepG2 by lipofection. The liver buds were infected with approx. 500 copies of HBV per endodermal cell in 4% PEG8000-containing medium and cultured for about 30 days.
(5) Culture supernatants of human liver buds and human iPS-cell derived hepatocytes were recovered at days 10, 20 and 30 post HBV infection, followed by measurement of HBV DNA. (6) Human liver buds and human iPS-cell derived hepatocytes were recovered at days 10, 20 and 30 post HBV infection, followed by measurement of HBV 3.5k RNA. (7) The inside of human liver buds was immunostained with HBc antibody at days 10, 20 and 30 post HBV infection. (8) Human primary hepatocytes (PXB cells; Phoenix Bio) were infected with the culture supernatant of human liver buds at day 20 post HBV infection. (9) Human liver buds and human iPS-cell derived hepatocytes were recovered at day 20 post HBV infection, followed by measurement of covalently closed circular DNA (cccDNA). (10) Human liver buds at day 10 post HBV infection and non-HBV-infected human liver buds in the corresponding period were fixed with paraformaldehyde and glutaraldehyde, and electron micrographs were taken. (11) Human liver buds were infected with HBV (5,000 copies per cell). […] Intracellular HBV 3.5k RNA and HBV DNA in culture supernatant were measured.

C=C1[C@H](CO)[C@@H](O)C[C@@H]1n1cnc2c(=O)[nH]c(N)nc21 [ETV, entecavir, reference compound]
infection of human liver bud with HBV (entecavir): inhibited

interferon α [IFN-α]
infection of human liver bud with HBV (interferon α 1000 U/ml): inhibited

interferon γ [IFN-γ]
infection of human liver bud with HBV (interferon γ 1000 U/ml): inhibited

— patent publication US20190285619A1, “VIRUS INFECTION MODEL, PREPARATION METHOD THEREFOR, AND UTILIZATION THEREOF” (priority 2015, published 2019)
